Experimental data from US5866597A, “Use of triazine compounds for the treatment of memory and learning disorders” (Glaxo Wellcome Inc., priority 1993, dated 1999).
Read-outs that look alike come from different tables or passages of the source.

Experiments:
[1] = isethionate salt, cited from earlier work
[2] = tested on: scopolamine-induced deficit in rats; assay: Light-dark box memory test in rats, scopolamine-induced deficit, single dose pre-training (Tables 3 and 4); assay type: in vivo, Male Wistar rats; details: for Mean latency Day 1 / Mean latency Day 2: ± SEM; for Effect on expected decrease in latency on retest: scopolamine 0.1 mg/kg
Experimental: (§1) Male Wistar rats obtained from Charles River were used. They were housed under controlled conditions (temperature 21±2 deg. C., humidity approx. 50%, 12 hour light/dark cycle, food and water ad lib) for one week before use. On the day before test the rats were permanently housed in groups of six. Food and water were supplied ad lib. On the test day, animals were weighed and then dosed either 30 minutes before test (midazolam), one hour before test (compound A) or immediately after test.
(§2) All drugs were dissolved or suspended in 0.25% (w/v) aqueous celacol, and administered orally (by gavage), i.p. or s.c. The dose volume was 5 ml/kg for all routes.
(§3) An identical apparatus to that described in Example 1 was used, except that the smaller box measured 370 mm×260 mm×190 mm.
(§4) This consisted of training as described for mice under section (d) of Example 1.
(§5) Test drugs or control fluids were given before or immediately after the training session.
(§6) This was as described under section (e) of Example 1.

[3] = tested on: scopolamine-induced deficit in mice; assay: Modified light-dark box memory test in mice, scopolamine-induced deficit, drug given pre-training (Table 1); assay type: in vivo, Male albino CD-1 mice; details: for Mean latency Day 1 / Mean latency Day 2: ± SEM
Experimental: (§7) Male albino CD-1 mice obtained from Charles River were used. They were housed under controlled conditions (temperature 21±2 deg. C., humidity approx. 50%, 12 hour light/dark cycle, food and water ad lib) for one week before use. On the day before test, the mice were housed in groups of six in polythene boxes in the laboratory and marked for identification. Food and water were supplied ad lib. On the test day, animals were weighed and then dosed either 30 minutes before test (piracetam, ondansetron) one hour before test (compound A) or immediately after test.
All drugs were dissolved or suspended in 0.25% (w/v) aqueous celacol, and administered orally (by gavage), i.p. or s.c. The dose volume was 10 ml/kg for all routes.
(§8) The apparatus consisted of two boxes with an opening 90 mm×60 mm at floor level between them. A plastic door was used to close the opening when required. The smaller box (290 mm×120 mm×120 mm high) was made of opaque plastics, open at the top to allow illumination by normal laboratory lighting. The larger box (305 mm square×280 mm high) was enclosed apart from the single opening.
(§9) This consisted of training, with retest 24 hours later. During training, animals were placed individually in the open box facing away from the end with the opening. After a period of exploration, they usually entered the dark box and the latency to entry in seconds was noted. The door to the dark box was closed, and after 30 seconds had elapsed, the animal was removed gently and returned to the holding box. Twenty-four hours later, an identical procedure was used, except that the session ended as soon as the animal had entered the dark box. The latency was again noted. During the interval, the animals were not handled, and were disturbed as little as possible. Each animal was used once only.
as §5
Group comparisons were made between latencies to enter the dark compartment on the first and second occasions. For both training and retest occasions, comparisons were made between vehicle and treatment groups. […] The difference between latencies on the two occasions is presented as % decrease on Day 2 compared with Day 1.
(§10) The mean latency to enter the dark box±standard error of the mean was calculated from a group of 12 animals. For a given treatment, figures in the columns labelled `Day 1` and `Day 2` show the mean latencies taken from the same group of animals. The difference between data obtained on the two days is illustrated by showing the % decrease, and the data compared using the Mann-Whitney U-test; NS indicates a p value>0.1.

scopolamine effect = details: cited from earlier work; for Reversal of the scopolamine effect: screen for nootropic compounds
[4] = tested on: scopolamine-induced deficit in mice; assay: Modified light-dark box memory test in mice, scopolamine-induced deficit, drug given immediately post-training (Table 2); assay type: in vivo, Male albino CD-1 mice; details: for Mean latency Day 1 / Mean latency Day 2: ± SEM
Experimental: as §7
[…] The dose volume was 10 ml/kg for all routes.
as §8, §9, §5
Group comparisons were made between latencies to enter the dark compartment on the first and second occasions. For both training and retest occasions, comparisons were made between vehicle and treatment groups. The distribution of latencies was skewed on both learning and retest trials (data not shown), so the non-parametric Mann-Whitney U-test was used. The difference between latencies on the two occasions is presented as % decrease on Day 2 compared with Day 1.
as §10

[5] = tested on: scopolamine-induced deficit in rats; assay: Light-dark box memory test in rats, sub-acute dosing: pre-training, pre-training and pre-retest, or four pre-treatments and before training and retest (Table 5); assay type: in vivo, Male Wistar rats
Experimental: as §1
In the sub-acute dosing regimen (see `Procedure`) the rats, housed as above, received six doses of drug or vehicle by the oral route, each 24 hours apart.
as §2, §3, §4
The procedure was identical with that described above, except that seven groups of rats received compound A or control pre-treatment as 6 oral doses each 24 hours apart, as follows.
Training took place 1 hour after the fifth dose i.e. on day 5. […] The usual retest was performed 24 hours later (on day 6), one hour after the sixth oral treatment.
as §6
The mean latency to enter the dark box±standard error of the mean was calculated from a group of 24 animals (controls in first block) or 12 animals (all other treatments). For a given treatment, figures in the columns labelled `Day 5` and `Day 6` show the mean latencies taken from the same group of animals. The difference between data obtained on the two days is illustrated by showing the % decrease, and the data compared using the Mann-Whitney U-test.

[6] = tested on: scopolamine-induced pupillary dilatation in rats; assay: Pupil diameter measurement in rats (Table 6); assay type: in vivo, Male Wistar rats
Experimental: (§11) 15 minutes before observation. Under these conditions, which were identical to those used in the learning experiments described in Example 2, changes in salivation and pupil diameter were measured. Salivation was measured by placing a piece of folded filter paper in the rat's mouth and measuring the diameter of the blot in mm after 1 minute. Pupil diameter was measured using a magnifying glass and graticule under normal lighting conditions. For both measures, comparisons were made between control and drug-treated groups using a Student's T-test on independent samples.
(§12) Groups of 6 animals were used.

[7] = tested on: scopolamine-induced dry mouth in rats; assay: Salivation measurement in rats (Table 6); assay type: in vivo, Male Wistar rats; details: scopolamine, vehicle-pretreated rats; p<0.01
Experimental: as §11, §12

[8] = saline s.c. + midazolam 0.5 mg/kg i.p.
[9] = scopolamine 0.1 mg/kg s.c. + midazolam 0.5 mg/kg i.p.
[10] = scopolamine 1 mg/kg s.c. + ondansetron 0.01 ug/kg i.p.
[11] = scopolamine 1 mg/kg s.c. + ondansetron 1.0 ug/kg i.p.
[12] = scopolamine 1 mg/kg s.c. + ondansetron 100 ug/kg i.p.
[13] = saline s.c. + piracetam 2000 mg/kg i.p.
[14] = scopolamine 1 mg/kg s.c. + piracetam 2000 mg/kg i.p.
[15] = saline s.c. + piracetam 2000 mg/kg i.p. post-training
[16] = scopolamine 1 mg/kg s.c. + piracetam 2000 mg/kg i.p. post-training
[17] = scopolamine 1 mg/kg s.c. + celacol
[18] = scopolamine 1 mg/kg s.c. + saline (piracetam experiment)
[19] = scopolamine 1 mg/kg s.c. + saline
[20] = scopolamine 0.1 mg/kg s.c. + celacol (Table 3)
[21] = scopolamine 0.1 mg/kg s.c. + saline (Table 4)
[22] = scopolamine 0.1 mg/kg s.c. + celacol days 1-6, ± SEM

Structure (SMILES): Nc1nnc(-c2cccc(Cl)c2Cl)c(N)n1 [3,5-diamino-6-(2,3-dichlorophenyl)-1,2,4-triazine isethionate]
- Solubility [1]: good solubility
- Solubility ([1]; listed as The salt with isethionic acid): particularly good solubility

Structure (SMILES): Cc1ncc2n1-c1ccc(Cl)cc1C(c1ccccc1F)=NC2 [Midazolam]
- Reversal of scopolamine-induced deficit ([2]; midazolam 0.5 mg/kg i.p.): did not reverse the scopolamine-induced deficit
- Difference between days, % Decrease ([2]; saline s.c. + midazolam 0.5 mg/kg i.p., p (0.09)): 29%
- Mean latency Day 1 [2, 8]: 39.9 ± 4.9 s
- Mean latency Day 2 [2, 8]: 28.2 ± 2.7 s
- Difference between days, % Decrease ([2]; scopolamine 0.1 mg/kg s.c. + midazolam 0.5 mg/kg i.p., p NS): 9%
- Mean latency Day 1 [2, 9]: 37.0 ± 4.0 s
- Mean latency Day 2 [2, 9]: 33.6 ± 3.4 s

Structure (SMILES): Cc1nccn1CC1CCc2c(c3ccccc3n2C)C1=O (stereo not shown) [Ondansetron, 1,2,3,9-tetrahydro-9-methyl-3-[(2-methyl-1H-imidazol-1-yl)methyl]-4H-carbazol-4-one]
- Difference between days, % Decrease ([3]; scopolamine 1 mg/kg s.c. + ondansetron 0.01 ug/kg i.p., p NS): -28%
- Mean latency Day 1 [3, 10]: 15.6 ± 1.8 s
- Mean latency Day 2 [3, 10]: 20.0 ± 1.9 s
- Difference between days, % Decrease ([3]; scopolamine 1 mg/kg s.c. + ondansetron 1.0 ug/kg i.p., p NS): -5%
- Mean latency Day 1 [3, 11]: 14.3 ± 1.4 s
- Mean latency Day 2 [3, 11]: 14.9 ± 1.2 s
- Difference between days, % Decrease ([3]; scopolamine 1 mg/kg s.c. + ondansetron 100 ug/kg i.p., p <0.05): 28%
- Mean latency Day 1 [3, 12]: 16.3 ± 1.9 s
- Mean latency Day 2 [3, 12]: 11.8 ± 1.5 s
- Reversal of the scopolamine effect (scopolamine effect): positive results

Structure (SMILES): NC(=O)CN1CCCC1=O [Piracetam]
- Day 2 latency versus scopolamine-treated control animals ([3]; piracetam 2000 mg/kg i.p. + scopolamine, pre-training, p<0.05): significantly different
- Difference between days, % Decrease ([3]; saline s.c. + piracetam 2000 mg/kg i.p., p <0.01): 44%
- Mean latency Day 1 [3, 13]: 21.4 ± 4.7 s
- Mean latency Day 2 [3, 13]: 12.1 ± 1.2 s
- Difference between days, % Decrease ([3]; scopolamine 1 mg/kg s.c. + piracetam 2000 mg/kg i.p., p NS*): 27%
- Mean latency Day 1 [3, 14]: 19.1 ± 2.4 s
- Mean latency Day 2 [3, 14]: 13.9 ± 1.8 s
- Difference between days, % Decrease ([4]; saline s.c. + piracetam 2000 mg/kg i.p. post-training, p <0.05): 28%
- Mean latency Day 1 [4, 15]: 18.8 ± 2.0 s
- Mean latency Day 2 [4, 15]: 13.5 ± 1.7 s
- Difference between days, % Decrease ([4]; scopolamine 1 mg/kg s.c. + piracetam 2000 mg/kg i.p. post-training, p NS*): 6%
- Mean latency Day 1 [4, 16]: 19.2 ± 1.8 s
- Mean latency Day 2 [4, 16]: 18.0 ± 1.8 s
- Reversal of the scopolamine effect (scopolamine effect): positive results

Structure (SMILES): CN1[C@@H]2C[C@@H](OC(=O)[C@H](CO)c3ccccc3)C[C@H]1[C@@H]1O[C@@H]12 [Scopolamine]
- Difference between days, % Decrease ([3]; scopolamine 1 mg/kg s.c. + celacol, p NS): -10%
- Mean latency Day 1 [3, 17]: 18.8 ± 1.8 s
- Mean latency Day 2 [3, 17]: 20.7 ± 2.3 s
- Difference between days, % Decrease ([3]; scopolamine 1 mg/kg s.c. + saline (ondansetron experiment), p NS): -2%
- Mean latency Day 1 ([3]; scopolamine 1 mg/kg s.c. + saline (ondansetron experiment)): 16.5 ± 1.3 s
- Difference between days, % Decrease ([3]; scopolamine 1 mg/kg s.c. + saline (piracetam experiment), p NS): -27%
- Mean latency Day 1 [3, 18]: 18.9 ± 1.4 s
- Mean latency Day 2 [3, 18]: 24.0 ± 2.5 s
- Effect on expected decrease in latency on retest ([3]; scopolamine 1 mg/kg, vehicle-treated mice): abolished this effect
- Difference between days, % Decrease ([4]; scopolamine 1 mg/kg s.c. + saline, p (0.07, up)): -36%
- Mean latency Day 1 [4, 19]: 19.5 ± 2.3 s
- Mean latency Day 2 [4, 19]: 26.5 ± 2.7 s
- Difference between days, % Decrease ([2]; scopolamine 0.1 mg/kg s.c. + celacol (Table 3), p NS): 0%
- Mean latency Day 1 [2, 20]: 44.4 ± 4.3 s
- Mean latency Day 2 [2, 20]: 44.5 ± 3.7 s
- Difference between days, % Decrease ([2]; scopolamine 0.1 mg/kg s.c. + saline (Table 4), p NS): -16%
- Mean latency Day 1 [2, 21]: 34.4 ± 5.2 s
- Mean latency Day 2 [2, 21]: 39.8 ± 4.5 s
- Effect on expected decrease in latency on retest ([2]; vehicle-treated rats (Table 3)): reversed this effect
- Effect on expected decrease in latency on retest ([2]; vehicle-treated rats (Table 4)): prevented this effect
- Diff. between days, % ([5]; scopolamine 0.1 mg/kg s.c. + celacol days 1-6, p NS): -3%
- Mean latency Day 5 [5, 22]: 33.5 ± 2.2 s
- Mean latency Day 6 [5, 22]: 34.4 ± 2.5 s
- Effect on expected decrease in mean latency ([5]; scopolamine 0.1 mg/kg, vehicle-treated rats): reversed by scopolamine
- Mean pupil diameter ([6]; celacol p.o. + scopolamine 0.1 mg/kg s.c., ± SEM): 22.8 ± 1.65 mm × 10
- Effect on pupil diameter ([6]; scopolamine, vehicle-pretreated rats, p<0.01): significantly increased pupil diameter
- Effect on salivation [7]: reduced salivation
- Effect on memory (scopolamine effect; given before or immediately after a learning trial): can abolish the memory
